Experimental data taken from the NIST ThermoML archive (doi:10.1016/j.fluid.2011.11.026).
Numbers after ± are expanded uncertainties.

Conditions: Liquid, Closed cell (Static) method

FC(F)(F)C(F)(F)C(F)(F)C(F)(F)F [decafluorobutane]
Conditions | vapor or sublimation pressure [kPa]
263.15 K | 72.7 ± 0.5
268.12 K | 89.6 ± 0.5
273.09 K | 109.4 ± 0.5
278 K | 132.4 ± 0.6
282.99 K | 159 ± 0.6
287.91 K | 189.3 ± 0.7
292.97 K | 225.4 ± 0.8
297.95 K | 265.3 ± 0.8
302.9 K | 310.2 ± 0.9
308.21 K | 364.3 ± 1.1
312.88 K | 417.8 ± 1.2
317.88 K | 481.2 ± 1.4
323.22 K | 556.4 ± 1.5
328.15 K | 633.7 ± 1.7
332.91 K | 716.1 ± 2
337.93 K | 811 ± 2.2
342.91 K | 913 ± 2.5
347.93 K | 1025.8 ± 2.8
352.92 K | 1149.2 ± 3.1
357.1 K | 1261.3 ± 3.4
363.13 K | 1437.8 ± 3.8
368.03 K | 1594.1 ± 4.3
373.25 K | 1775.9 ± 4.7
376.88 K | 1912.1 ± 5.1
379.05 K | 1997.7 ± 5.3

COC [dimethyl ether]
Conditions | vapor or sublimation pressure [kPa]
296.78 K | 571.9 ± 1.2
303.46 K | 690.2 ± 1.3
308.54 K | 793.1 ± 1.5
312.26 K | 875.3 ± 1.7
317.17 K | 993.3 ± 1.8
322.08 K | 1122 ± 2.1
327.08 K | 1265.6 ± 2.3
332.09 K | 1423.5 ± 2.6
337 K | 1591.1 ± 2.9
341.97 K | 1773.8 ± 3.2
347 K | 1976.2 ± 3.5
351.89 K | 2187.4 ± 3.9
356.91 K | 2422.2 ± 4.2
361.94 K | 2675.2 ± 4.7
366.96 K | 2946.3 ± 5.1
371.84 K | 3230.3 ± 5.6
376.91 K | 3546.4 ± 6.1
379.82 K | 3739 ± 6.4
382.88 K | 3950.3 ± 6.8
385.83 K | 4161.9 ± 7.1
387.81 K | 4309.6 ± 7.4
389.81 K | 4463.7 ± 7.6
391.86 K | 4625.6 ± 7.9
393.81 K | 4783 ± 8.1
395.74 K | 4943.6 ± 8.4
